Data taken from patent US20200247897A1, “THERAPEUTIC ANTIBODIES BASED ON MUTATED IGG HEXAMERS” (GENMAB B.V., priority 2017, published 2020).

System: panel of 235 cell lines representing 14 tumor lineages
Experiment: ATPlite growth inhibition screening of a human cancer cell line panel (Horizon Discovery)
Format: cell-based
Method: A 72 hour ATPlite assay (except for DLD-1 and HCT116 cell lines, for which a 120 hour assay was performed) with growth inhibition analysis was performed in two parts at Horizon Discovery Ltd, UK. Samples were tested as four replicates in 384-well assay plates. Serial dilution series of antibody, starting from 0.072 μM final concentration was used for all tested cell lines. For TRAIL (Invitrogen; Cat # PHC1634) serial dilution series starting from 0.01 μM final concentration for the cell lines tested in the first part and 0.17 μM final concentration for the cell lines tested in the second part of the screening was used.

[1] = 59M, ovary cancer, screening #1
[2] = 769-P, kidney cancer, screening #2
[3] = 786-0, kidney cancer, screening #2
[4] = 5637, bladder cancer, screening #2
[5] = A172, neural tissue cancer, screening #2
[6] = ACHN, kidney cancer, screening #2
[7] = CAL-54, kidney cancer, screening #1
[8] = COLO-783, melanoma, screening #1
[9] = COR-L23-CPR, NSCLC, screening #1
[10] = COV434, ovary cancer, screening #1
[11] = COV644, ovary cancer, screening #1
[12] = G-402, kidney cancer, screening #2
[13] = HCC1937, breast cancer (TNBC), screening #2
[14] = HT-1197, bladder cancer, screening #2
[15] = HT-1376, bladder cancer, screening #2
[16] = Hs 294T, melanoma, screening #1
[17] = HuP-T3, pancreatic cancer, screening #1
[18] = J82, bladder cancer, screening #1
[19] = JHOM-1, ovary cancer, screening #1

IC50 [1]: 0.049 nM
IC50 [2]: 1.94 nM
IC50 [3]: 288 nM
IC50 [4]: 0.06 nM
IC50 [5]: 0.029 nM
IC50 (A498, kidney cancer, screening #2): 0.079 nM
IC50 (A704, kidney cancer, screening #1): 3.44 nM
IC50 [6]: 0.356 nM
IC50 (BT-20, breast cancer (TNBC), screening #2): 0.089 nM
IC50 (BT-549, breast cancer (TNBC), screening #2): 0.285 nM
IC50 [7]: 0.268 nM
IC50 (CL-11, colorectal cancer, screening #1): 1.32 nM
IC50 (CL-34, colorectal cancer, screening #1): 0.024 nM
IC50 (CL-40, colorectal cancer, screening #1): 1.98 nM
IC50 (COLO-201, colorectal cancer, screening #1): 0.168 nM
IC50 (COLO-205, colorectal cancer, screening #1): 2.27 nM
IC50 (COLO-206F, colorectal cancer, screening #1): 0.146 nM
IC50 [8]: 0.224 nM
IC50 [9]: 5.48 nM
IC50 [10]: 0.395 nM
IC50 [11]: 0.271 nM
IC50 (DBTRG-05MG, neural tissue cancer, screening #2): 0.087 nM
IC50 (DLD-1, colorectal cancer, screening #1): 3.95 nM
IC50 (DLD-1_BRCA2 (−/−), colorectal cancer, screening #1): 0.516 nM
IC50 (DU-4475, breast cancer (TNBC), screening #2): 0.079 nM
IC50 (DV-90, NSCLC, screening #1): 1.19 nM
IC50 (FTC-238, head and neck cancer, screening #1): 3.92 nM
IC50 (G-401, kidney cancer, screening #2): 0.068 nM
IC50 [12]: 0.173 nM
IC50 (GP2D, colorectal cancer, screening #1): 0.003 nM
IC50 (GSU, gastric cancer, screening #1): 0.454 nM
IC50 (H4, neural tissue cancer, screening #2): 0.007 nM
IC50 (HCC38, breast cancer (TNBC), screening #2): 0.08 nM
IC50 (HCC1187, breast cancer (TNBC), screening #2): 0.066 nM
IC50 (HCC1806, breast cancer (TNBC), screening #2): 0.05 nM
IC50 [13]: 0.647 nM
IC50 (HCT-15, colorectal cancer, screening #1): 0.129 nM
IC50 (HCT-116_ARID1A (Q456*/Q456*), colorectal cancer, screening #1): 10.5 nM
IC50 (HCT-116_KRAS (+/−), colorectal cancer, screening #1): 0.253 nM
IC50 (HCT-116_PIK3A (+/−)KO mt H1047R, colorectal cancer, screening #1): 1.25 nM
IC50 (HEC-108, endometrial cancer, screening #1): 1.48 nM
IC50 (HEC-265, endometrial cancer, screening #1): 0.021 nM
IC50 (HLE, liver cancer, screening #1): 8.36 nM
IC50 (HMC-1-8, breast cancer (TNBC), screening #2): 0.232 nM
IC50 (HRT-186, colorectal cancer, screening #1): 9.24 nM
IC50 (HT55, colorectal cancer, screening #1): 0.11 nM
IC50 (HT-115, colorectal cancer, screening #1): 0.107 nM
IC50 [14]: 0.167 nM
IC50 [15]: 160 nM
IC50 [16]: 0.019 nM
IC50 [17]: 0.223 nM
IC50 [18]: 33.6 nM
IC50 [19]: 0.596 nM
IC50 (JHUEM-2, endometrial cancer, screening #1): 0.165 nM
IC50 (KNS-81, neural tissue cancer, screening #2): 0.013 nM
Substance: TRAIL: natural DR5 ligand, recombinant human TRAIL/APO-2L
Max Inhibition [1]: 98.5%
Max Inhibition [2]: 39.4%
Max Inhibition [3]: 2.6%
Max Inhibition [4]: 99.1%
Max Inhibition [5]: 98.2%
Max Inhibition (A375, melanoma, screening #1): 47.1%
Max Inhibition [6]: 32.4%
Max Inhibition (BEN, NSCLC, screening #1): 8.1%
Max Inhibition (BxPC-3, pancreatic cancer, screening #1): 46.5%
Max Inhibition (CAKI-2, kidney cancer, screening #1): 5.7%
Max Inhibition (CAL-12T, NSCLC, screening #1): 11.9%
Max Inhibition [7]: 71.6%
Max Inhibition (CAPAN-2, pancreatic cancer, screening #1): 4.8%
Max Inhibition (CFPAC-1, pancreatic cancer, screening #1): 13.2%
Max Inhibition (COLO858, melanoma, screening #1): 12.6%
Max Inhibition (COLO-679, melanoma, screening #1): 24.9%
Max Inhibition (COLO-699, NSCLC, screening #1): 2.8%
Max Inhibition [8]: 80.9%
Max Inhibition (COLO-800, melanoma, screening #1): 33.5%
Max Inhibition (COLO-818, melanoma, screening #1): 7.8%
Max Inhibition (COLO-849, melanoma, screening #1): 17.6%
Max Inhibition [9]: 58.4%
Max Inhibition (COR-L105, NSCLC, screening #1): 35.7%
Max Inhibition [10]: 73.1%
Max Inhibition (COV504, ovary cancer, screening #1): 11.7%
Max Inhibition [11]: 74.9%
Max Inhibition (Calu-1, NSCLC, screening #1): 22.0%
Max Inhibition (DV-90, NSCLC, screening #1): 96.1%
Max Inhibition (EPLC-272H, NSCLC, screening #1): 51.7%
Max Inhibition [12]: 15.0%
IC50 (HCC70, breast cancer (TNBC), screening #2): 347 nM
Max Inhibition [13]: 28.5%
Max Inhibition (HLC-1, NSCLC, screening #1): 32.6%
Max Inhibition (HMCB, melanoma, screening #1): 1.0%
Max Inhibition (HOP-62, NSCLC, screening #1): 55.6%
Max Inhibition (HPAF-II, pancreatic cancer, screening #1): 13.3%
Max Inhibition [14]: 31.8%
Max Inhibition [15]: 10.6%
Max Inhibition [16]: 91.1%
Max Inhibition (Hs 936.T, melanoma, screening #1): 20.7%
Max Inhibition [17]: 88.4%
Max Inhibition (IGR-1, melanoma, screening #1): 23.3%
Max Inhibition (IGR-37, melanoma, screening #1): 18.0%
Max Inhibition (IGR-39, melanoma, screening #1): 20.1%
Max Inhibition (IPC-298, melanoma, screening #1): 5.7%
Max Inhibition [18]: 11.5%
Max Inhibition (JHOC-5, ovary cancer, screening #1): 18.4%
Max Inhibition [19]: 58.1%
Max Inhibition (JHOM-2B, ovary cancer, screening #1): 21.7%
Max Inhibition (JHOS-4, ovary cancer, screening #1): 12.5%
Max Inhibition (KLM-1, pancreatic cancer, screening #1): 12.7%
Max Inhibition (KP-2, pancreatic cancer, screening #1): 3.9%
Max Inhibition (KP-3, pancreatic cancer, screening #1): 23.5%
Max Inhibition (KP-4, pancreatic cancer, screening #1): 23.6%
